Reference: PubChem BioAssay (NCI)
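Dose response: 5 concentrations. Exposure: 48 h. Format: 96-well plates. Endpoint: linear interpolation; highest concentration if not reached. TGI: concentration producing complete growth inhibition.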

Columns and labels:
Experiment in all cases: NCI tumour cell line growth inhibition, 48 h
786-0 renal = test system: 786-0 renal
A498 renal = test system: A498 renal
A549 NSCLC = test system: A549 NSCLC
ACHN renal = test system: ACHN renal
BT-549 breast = test system: BT-549 breast
CAKI-1 renal = test system: CAKI-1 renal
CCRF-CEM leukemia = test system: CCRF-CEM leukemia
COLO 205 colon = test system: COLO 205 colon
EKVX NSCLC = test system: EKVX NSCLC
HCT-116 colon = test system: HCT-116 colon
HCT-15 colon = test system: HCT-15 colon
HOP-62 NSCLC = test system: HOP-62 NSCLC
HOP-92 NSCLC = test system: HOP-92 NSCLC
HS 578T breast = test system: HS 578T breast
HT29 colon = test system: HT29 colon
IGROV1 ovarian = test system: IGROV1 ovarian
K-562 leukemia = test system: K-562 leukemia
KM12 colon = test system: KM12 colon
LOX IMVI melanoma = test system: LOX IMVI melanoma
M14 melanoma = test system: M14 melanoma
MALME-3M melanoma = test system: MALME-3M melanoma
MCF7 breast = test system: MCF7 breast
MDA-MB-231 breast = test system: MDA-MB-231 breast
MDA-MB-435 = test system: MDA-MB-435
MDA-N = test system: MDA-N
MOLT-4 leukemia = test system: MOLT-4 leukemia
NCI-H226 lung = test system: NCI-H226 lung
NCI-H23 lung = test system: NCI-H23 lung
NCI-H460 lung = test system: NCI-H460 lung
OVCAR-3 ovarian = test system: OVCAR-3 ovarian
OVCAR-4 ovarian = test system: OVCAR-4 ovarian
OVCAR-5 ovarian = test system: OVCAR-5 ovarian
OVCAR-8 ovarian = test system: OVCAR-8 ovarian
PC-3 prostate = test system: PC-3 prostate
RPMI-8226 leukemia = test system: RPMI-8226 leukemia
RXF 393 renal = test system: RXF 393 renal
SF-268 CNS = test system: SF-268 CNS
SF-295 CNS = test system: SF-295 CNS
SF-539 CNS = test system: SF-539 CNS
SK-MEL-2 melanoma = test system: SK-MEL-2 melanoma
SK-MEL-28 melanoma = test system: SK-MEL-28 melanoma
SK-MEL-5 melanoma = test system: SK-MEL-5 melanoma
SK-OV-3 ovarian = test system: SK-OV-3 ovarian
SN12C renal = test system: SN12C renal
SNB-19 CNS = test system: SNB-19 CNS
SNB-75 CNS = test system: SNB-75 CNS
SR leukemia = test system: SR leukemia
SW-620 colon = test system: SW-620 colon
T-47D breast = test system: T-47D breast
TK-10 renal = test system: TK-10 renal
U251 CNS = test system: U251 CNS
UACC-257 melanoma = test system: UACC-257 melanoma
UACC-62 melanoma = test system: UACC-62 melanoma
UO-31 renal = test system: UO-31 renal
DU-145 prostate = test system: DU-145 prostate
HL-60(TB) leukemia = test system: HL-60(TB) leukemia
NCI-H522 lung = test system: NCI-H522 lung
NCI/ADR-RES ovarian = test system: NCI/ADR-RES ovarian

Molecule `Cc1nn(C(=O)c2ccccc2O)c2c1C(c1ccc3ccccc3c1O)SC(N)=N2` (stereo not given) has a TGI (786-0 renal) greater than 10 µM, a TGI (A498 renal) greater than 10 µM and a TGI (A549 NSCLC) greater than 10 µM. It also gave a TGI (ACHN renal) greater than 10 µM, a TGI (BT-549 breast) greater than 10 µM and a TGI (CAKI-1 renal) greater than 10 µM. It also gave a TGI (CCRF-CEM leukemia) greater than 10 µM, a TGI (COLO 205 colon) greater than 10 µM and a TGI (EKVX NSCLC) greater than 10 µM. It also gave a TGI (HCT-116 colon) greater than 10 µM, a TGI (HCT-15 colon) greater than 10 µM and a TGI (HOP-62 NSCLC) greater than 10 µM. For the same molecule, the TGI (HOP-92 NSCLC) was 4.03 µM, the TGI (HS 578T breast) was greater than 10 µM and the TGI (HT29 colon) was greater than 10 µM. For the same molecule, the TGI (IGROV1 ovarian) was greater than 10 µM, the TGI (K-562 leukemia) was greater than 10 µM and the TGI (KM12 colon) was greater than 10 µM. For the same molecule, the TGI (LOX IMVI melanoma) was greater than 10 µM, the TGI (M14 melanoma) was greater than 10 µM and the TGI (MALME-3M melanoma) was greater than 10 µM. For the same molecule, the TGI (MCF7 breast) was 7.32 µM, the TGI (MDA-MB-231 breast) was greater than 10 µM and the TGI (MDA-MB-435) was greater than 10 µM. For the same molecule, the TGI (MDA-N) was greater than 10 µM, the TGI (MOLT-4 leukemia) was greater than 10 µM and the TGI (NCI-H226 lung) was greater than 10 µM. The TGI (NCI-H23 lung) was greater than 10 µM, the TGI (NCI-H460 lung) was greater than 10 µM and the TGI (OVCAR-3 ovarian) was 9.61 µM. For the same molecule, the TGI (OVCAR-4 ovarian) was greater than 10 µM, the TGI (OVCAR-5 ovarian) was greater than 10 µM and the TGI (OVCAR-8 ovarian) was greater than 10 µM. It also gave a TGI (PC-3 prostate) greater than 10 µM, a TGI (RPMI-8226 leukemia) greater than 10 µM and a TGI (RXF 393 renal) greater than 10 µM. The TGI (SF-268 CNS) was greater than 10 µM, the TGI (SF-295 CNS) was greater than 10 µM and the TGI (SF-539 CNS) was greater than 10 µM. It also gave a TGI (SK-MEL-2 melanoma) greater than 10 µM, a TGI (SK-MEL-28 melanoma) greater than 10 µM and a TGI (SK-MEL-5 melanoma) of 4.76 µM. For the same molecule, the TGI (SK-OV-3 ovarian) was greater than 10 µM, the TGI (SN12C renal) was greater than 10 µM and the TGI (SNB-19 CNS) was greater than 10 µM. The TGI (SNB-75 CNS) was greater than 10 µM, the TGI (SR leukemia) was greater than 10 µM and the TGI (SW-620 colon) was greater than 10 µM. For the same molecule, the TGI (T-47D breast) was 8.93 µM, the TGI (TK-10 renal) was greater than 10 µM and the TGI (U251 CNS) was greater than 10 µM. It also gave a TGI (UACC-257 melanoma) greater than 10 µM, a TGI (UACC-62 melanoma) of 4.63 µM and a TGI (UO-31 renal) greater than 10 µM.
`CN(CCCCCl)P(=O)(OCC1=CC(=O)c2ccccc2C1=O)OC[C@H]1O[C@@H](n2cc(F)c(=O)[nH]c2=O)C[C@@H]1O` (stereo not given in full) was tested, and the TGI (786-0 renal) was 18.3 µM, the TGI (A549 NSCLC) was 0.553 µM and the TGI (ACHN renal) was 14.7 µM. It also gave a TGI (BT-549 breast) of 22.3 µM, a TGI (CAKI-1 renal) of 0.627 µM and a TGI (CCRF-CEM leukemia) of 29.4 µM. It also gave a TGI (COLO 205 colon) greater than 26 µM, a TGI (DU-145 prostate) of 5.53 µM and a TGI (EKVX NSCLC) of 21.2 µM. It also gave a TGI (HCT-116 colon) of 13.5 µM, a TGI (HCT-15 colon) of 20.3 µM and a TGI (HL-60(TB) leukemia) of 16.5 µM. For the same molecule, the TGI (HOP-62 NSCLC) was 22.6 µM, the TGI (HS 578T breast) was 0.603 µM and the TGI (HT29 colon) was 34.4 µM. For the same molecule, the TGI (IGROV1 ovarian) was 14.3 µM, the TGI (K-562 leukemia) was 40.9 µM and the TGI (KM12 colon) was 22.3 µM. The TGI (LOX IMVI melanoma) was 10.7 µM, the TGI (M14 melanoma) was 3.52 µM and the TGI (MALME-3M melanoma) was 2.79 µM. For the same molecule, the TGI (MCF7 breast) was 8.68 µM, the TGI (MDA-MB-231 breast) was 19.3 µM and the TGI (MDA-MB-435) was 2.21 µM. The TGI (MDA-N) was 2.19 µM, the TGI (MOLT-4 leukemia) was 32.2 µM and the TGI (NCI-H226 lung) was 21 µM. For the same molecule, the TGI (NCI-H23 lung) was 5.07 µM, the TGI (NCI-H460 lung) was 7.9 µM and the TGI (NCI-H522 lung) was 10.9 µM. It also gave a TGI (OVCAR-3 ovarian) of 12.8 µM, a TGI (OVCAR-4 ovarian) of 14.9 µM and a TGI (OVCAR-5 ovarian) of 25.2 µM. For the same molecule, the TGI (OVCAR-8 ovarian) was 15.7 µM, the TGI (PC-3 prostate) was 18.8 µM and the TGI (RPMI-8226 leukemia) was 21.8 µM. It also gave a TGI (RXF 393 renal) of 2.78 µM, a TGI (SF-268 CNS) of 12.6 µM and a TGI (SF-295 CNS) of 0.452 µM. It also gave a TGI (SK-MEL-2 melanoma) of 23.4 µM, a TGI (SK-MEL-28 melanoma) of 23.8 µM and a TGI (SK-MEL-5 melanoma) of 0.647 µM. It also gave a TGI (SK-OV-3 ovarian) greater than 42.8 µM, a TGI (SN12C renal) of 1.21 µM and a TGI (SNB-19 CNS) greater than 40.6 µM. It also gave a TGI (SNB-75 CNS) of 0.418 µM, a TGI (SR leukemia) of 28.9 µM and a TGI (SW-620 colon) of 23.1 µM. The TGI (T-47D breast) was 3.65 µM, the TGI (TK-10 renal) was 17.7 µM and the TGI (U251 CNS) was 18.4 µM. It also gave a TGI (UACC-257 melanoma) of 24 µM, a TGI (UACC-62 melanoma) of 1.93 µM and a TGI (UO-31 renal) of 15.9 µM.
Work on `Cc1ccc(S(=O)(=O)NC(=O)NC(C(=O)O)C(C)C)cc1` (stereo not given) yielded a TGI (786-0 renal) greater than 100 µM, a TGI (A549 NSCLC) greater than 100 µM and a TGI (ACHN renal) greater than 100 µM. It also gave a TGI (BT-549 breast) greater than 100 µM, a TGI (CCRF-CEM leukemia) greater than 100 µM and a TGI (COLO 205 colon) greater than 100 µM. It also gave a TGI (DU-145 prostate) greater than 100 µM, a TGI (HCT-116 colon) greater than 100 µM and a TGI (HCT-15 colon) greater than 100 µM. It also gave a TGI (HL-60(TB) leukemia) greater than 100 µM, a TGI (HOP-62 NSCLC) greater than 100 µM and a TGI (HOP-92 NSCLC) greater than 100 µM. The TGI (HS 578T breast) was greater than 100 µM, the TGI (HT29 colon) was greater than 100 µM and the TGI (IGROV1 ovarian) was greater than 100 µM. It also gave a TGI (K-562 leukemia) greater than 100 µM, a TGI (KM12 colon) greater than 100 µM and a TGI (LOX IMVI melanoma) greater than 100 µM. For the same molecule, the TGI (M14 melanoma) was greater than 100 µM, the TGI (MALME-3M melanoma) was greater than 100 µM and the TGI (MCF7 breast) was greater than 100 µM. It also gave a TGI (MDA-MB-231 breast) greater than 100 µM, a TGI (MDA-N) greater than 100 µM and a TGI (MOLT-4 leukemia) greater than 100 µM. For the same molecule, the TGI (NCI-H23 lung) was greater than 100 µM, the TGI (NCI-H460 lung) was greater than 100 µM and the TGI (NCI-H522 lung) was greater than 100 µM. The TGI (NCI/ADR-RES ovarian) was greater than 100 µM, the TGI (OVCAR-4 ovarian) was greater than 100 µM and the TGI (OVCAR-5 ovarian) was greater than 100 µM. For the same molecule, the TGI (OVCAR-8 ovarian) was greater than 100 µM, the TGI (PC-3 prostate) was greater than 100 µM and the TGI (RPMI-8226 leukemia) was greater than 100 µM. The TGI (RXF 393 renal) was greater than 100 µM, the TGI (SF-268 CNS) was greater than 100 µM and the TGI (SF-295 CNS) was greater than 100 µM. The TGI (SF-539 CNS) was greater than 100 µM, the TGI (SK-MEL-2 melanoma) was greater than 100 µM and the TGI (SK-MEL-28 melanoma) was greater than 100 µM. For the same molecule, the TGI (SK-MEL-5 melanoma) was greater than 100 µM, the TGI (SK-OV-3 ovarian) was greater than 100 µM and the TGI (SN12C renal) was greater than 100 µM. It also gave a TGI (SNB-19 CNS) greater than 100 µM, a TGI (SNB-75 CNS) greater than 100 µM and a TGI (SR leukemia) greater than 100 µM. For the same molecule, the TGI (SW-620 colon) was greater than 100 µM, the TGI (T-47D breast) was greater than 100 µM and the TGI (TK-10 renal) was greater than 100 µM. It also gave a TGI (U251 CNS) greater than 100 µM, a TGI (UACC-257 melanoma) greater than 100 µM and a TGI (UACC-62 melanoma) greater than 100 µM. It also gave a TGI (UO-31 renal) greater than 100 µM.
